We go through 33 compounds from patent publication US9440950B2, “Arginine methyltransferase inhibitors and uses thereof” (Epizyme, Inc., priority 2013, dated 2016).

A value given as a limit tells only on which side of the number the result lay.

For orientation: IC50 means the point on the concentration scale where inhibition reaches its midpoint. High values mean lower potency, low ones higher potency.

In this test the target is T1, human PRMT1 (Homo sapiens, UniProt Q99873).
T1 construct: GST-tagged PRMT1; made in house; host or cells: High Five insect cells (baculovirus, pFastBacI)
T1 sequence (Q99873 with tags, fused parts or gaps): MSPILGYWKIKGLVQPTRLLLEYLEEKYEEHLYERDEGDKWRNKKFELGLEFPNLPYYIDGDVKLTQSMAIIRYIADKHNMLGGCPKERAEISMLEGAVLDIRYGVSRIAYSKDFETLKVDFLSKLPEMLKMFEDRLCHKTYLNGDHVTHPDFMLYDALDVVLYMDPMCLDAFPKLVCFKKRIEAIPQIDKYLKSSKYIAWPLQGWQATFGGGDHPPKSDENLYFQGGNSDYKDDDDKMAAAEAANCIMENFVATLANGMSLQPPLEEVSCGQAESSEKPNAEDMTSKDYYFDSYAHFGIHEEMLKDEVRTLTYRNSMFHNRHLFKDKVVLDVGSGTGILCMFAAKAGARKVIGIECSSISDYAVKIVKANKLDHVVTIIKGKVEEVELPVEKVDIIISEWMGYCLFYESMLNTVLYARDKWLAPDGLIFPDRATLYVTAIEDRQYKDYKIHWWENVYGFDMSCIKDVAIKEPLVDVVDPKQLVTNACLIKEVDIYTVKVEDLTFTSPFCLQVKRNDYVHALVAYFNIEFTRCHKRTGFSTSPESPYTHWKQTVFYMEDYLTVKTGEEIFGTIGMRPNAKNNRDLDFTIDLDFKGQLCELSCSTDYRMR
Put plainly: PRMT1 Biochemical Assay. Particulars: peptide substrate, 3H-SAM Flashplate assay. An excerpt: S-adenosylmethionine (SAM), S-adenosylhomocysteine (SAH), bicine, Tween20, dimethylsulfoxide (DMSO), bovine skin gelatin (BSG), and Tris(2-carboxyethyl)phosphine hydrochloride solution (TCEP) were purchased from Sigma-Aldrich at the highest level of purity possible. ^3H-SAM was purchase from American Radiolabeled Chemicals with a specific activity of 80 Ci/mmol. 384-well streptavidin Flashplates were purchased from PerkinElmer.
Peptide representative of human histone H4 residues 36-50 was synthesized with an N-terminal linker-affinity tag motif and a C-terminal amide cap by 21st Century Biochemicals. The peptide was purified by high-performance liquid chromatography (HPLC) to greater than 95% purity and confirmed by liquid chromatography mass spectrometry (LC-MS). The sequence was Biot-Ahx-[…]-amide (SEQ ID NO.: 1).
Full-length human PRMT1 isoform 1 (NM_001536.5) transcript clone was amplified from an HEK 293 cDNA library, incorporating flanking 5′ sequence encoding a FLAG tag ([…]) (SEQ ID NO.:2) fused directly to Met 1 of PRMT1. The amplified gene was subcloned into pFastBacI (Life Technologies) modified to encode an N-terminal GST tag and a TEV cleavage sequence ([…] […] […] […])(SEQ ID NO.:3) fused to Asp of the Flag tag of PRMT1.
Recombinant baculovirus were generated according to Bac-to-Bac kit instructions (Life Technologies). Protein over-expression was accomplished by infecting exponentially growing High Five insect cell culture at 1.5×10^6 cell/ml with 1:100 ratio of virus. Infections were carried out at 27° C. for 48 hours, harvested by centrifugation, and stored at −80° C. for purification.
GST-tagged PRMT1 was eluted with 50 mM Tris, 2 mM glutathione, pH 7.8, dialysed in buffer A and concentrated to 1 mg/mL. The purity of recovered protein was 73%. Reference: Wasilko, D. J. and S. E. Lee: “TIPS: titerless infected-cells preservation and scale-up” Bioprocess J., 5 (2006), pp. 29-32.
General Procedure for PRMT1 Enzyme Assays on Peptide Substrates.
The assays were all performed in a buffer consisting of 20 mM Bicine (pH=7.6), 1 mM TCEP, 0.005% BSG, and 0.002% Tween 20, prepared on the day of use. Compounds in 100% DMSO (1 ul) were spotted into a polypropylene 384-well V-bottom plates (Greiner) using a Platemate Plus outfitted with a 384-channel head (Thermo Scientific). DMSO (1 ul) was added to Columns 11, 12, 23, 24, rows A-H for the maximum signal control and 1 ul of SAH, a known product and inhibitor of PRMT1, was added to columns 11, 12, 23, 24, rows I-P for the minimum signal control. A cocktail (40 ul) containing the PRMT1 enzyme was added by Multidrop Combi (Thermo-Fisher). The compounds were allowed to incubate with PRMT1 for 30 min at room temperature, then a cocktail (10 ul) containing SAM and peptide was added to initiate the reaction (final volume=51 ul). The final concentrations of the components were as follows: PRMT1 was 0.5 nM, ^3H-SAM was 200 nM, non-radiolabeled SAM was 1.5 uM, peptide was 20 nM, SAH in the minimum signal control wells was 1 mM, and the DMSO concentration was 2%. The assays were stopped by the addition of non-radiolabeled SAM (10 ul) to a final concentration of 300 uM, which dilutes the ^3H-SAM to a level where its incorporation into the peptide substrate is no longer detectable. 50 ul of the reaction in the 384-well polypropylene plate was then transferred to a 384-well Flashplate and the biotinylated peptides were allowed to bind to the streptavidin surface for at least 1 hour before being washed once with 0.1% Tween20 in a Biotek ELx405 plate washer. The plates were then read in a PerkinElmer TopCount plate reader to measure the quantity of ^3H-labeled peptide bound to the Flashplate surface, measured as disintegrations per minute (dpm) or alternatively, referred to as counts per minute (cpm).
Where dpm=disintegrations per minute, cmpd=signal in assay well, and min and max are the respective minimum and maximum signal controls. […]
In the case of `Cc1cncc(-c2n[nH]cc2CN(C)CCN)c1` [Compound 6], the IC50 is ≥ 10000 nM.
As to `CCN(CC(C)C)c1ccc(-c2n[nH]cc2CN(C)CCNC)cn1` [Compound 36], the 50% inhibitory concentration (IC50) is ≤ 100 nM.
For `CNCCN(C)Cc1c[nH]nc1-c1ccc(N(CC(C)C)CC(C)C)nc1` [Compound 31], the half-maximal inhibitory concentration (IC50) is ≤ 100 nM.
The value for `Cc1cc(-c2n[nH]cc2CN(C)CCN)cnc1Cl` [Compound 10] was ≤ 100 nM.
To `CN(CCN)Cc1c[nH]nc1-c1ccncc1` [Compound 9] belongs ≤ 100 nM; to `COc1ccncc1-c1n[nH]cc1CN(C)CCN` [Compound 16], 101 to 1000 nM.
Consider `CC(C)CNc1ccc(-c2n[nH]cc2CN(C)CCN)cn1` [Compound 26], for which the 50% inhibitory concentration (IC50) is ≤ 100 nM.
As for `CN(CCN)Cc1c[nH]nc1-c1ccc(NCc2ccccc2)nc1` [Compound 25], the half-inhibitory concentration (IC50) is ≤ 100 nM.
Regarding `CN(CCN)Cc1c[nH]nc1-c1ccc(C#N)nc1` [Compound 28, 5-(4-(((2-aminoethyl)(methyl)amino)methyl)-1H-pyrazol-3-yl)picolinonitrile], the IC50 is ≤ 100 nM.
To `CNCCN(C)Cc1c[nH]nc1-c1ccc(N(C)C(C)C)nc1` [Compound 33, N^1-((3-(6-(isopropyl(methyl)amino)pyridin-3-yl)-1H-pyrazol-4-yl)methyl)-N^1,N^2-dimethylethane-1,2-diamine] belongs ≤ 100 nM; to `CN(CCN)Cc1c[nH]nc1-c1cncc(C#N)c1` [Compound 18], 101 to 1000 nM.
`CN(CCN)Cc1c[nH]nc1-c1ccc(C(F)(F)F)nc1` [Compound 13, N^1-methyl-N^1-((3-(6-(trifluoromethyl)pyridin-3-yl)-1H-pyrazol-4-yl)methyl)ethane-1,2-diamine]: the concentration for half-maximal inhibition (IC50) was ≤ 100 nM.
To `COc1ncccc1-c1n[nH]cc1CN(C)CCN` [Compound 15] belongs 101 to 1000 nM; to `CN(CCN)Cc1c[nH]nc1-c1cncc(F)c1` [Compound 7], ≤ 100 nM.
In the case of `CN(CCN)Cc1c[nH]nc1-c1ccc(N2CCOCC2)nc1` [Compound 20], the IC50 is ≤ 100 nM.
To `COc1ncc(Cl)cc1-c1n[nH]cc1CN(C)CCN` [Compound 14] belongs 1010 to 3000 nM.
For the compound `CNCCN(C)Cc1c[nH]nc1-c1ccc(N(C)CCC(C)C)nc1` [Compound 30], the IC50 is ≤ 100 nM.
Take `CNCCN(C)Cc1c[nH]nc1-c1ccc(OCC(C)C)nc1` [Compound 35, N^1-((3-(6-iso-butoxypyridin-3-yl)-1H-pyrazol-4-yl)methyl)-N^1,N^2-dimethylethane-1,2-diamine]: the IC50 was ≤ 100 nM.
The value for `CCN(CC)c1ccc(-c2n[nH]cc2CN(C)CCN)cn1` [Compound 24] was 101 to 1000 nM; that for `CN(CCN)Cc1c[nH]nc1-c1cncc(S(C)(=O)=O)c1` [Compound 4] was 1010 to 3000 nM; that for `CN(CCN)Cc1c[nH]nc1-c1ccc(N(C)Cc2ccccc2)nc1` [Compound 23] was ≤ 100 nM.
To `CC(C)Oc1ccc(-c2n[nH]cc2CN(C)CCN)cn1` [Compound 22] belongs ≤ 100 nM.
`CN(CCN)Cc1c[nH]nc1-c1cccnc1` [Compound 8] yielded an IC50 of 101 to 1000 nM.
The value for `COc1cc(-c2n[nH]cc2CN(C)CCN)ccn1` [Compound 11] was 101 to 1000 nM; that for `CNCCN(C)Cc1c[nH]nc1-c1ccc(N(C)CC(C)C)nc1` [Compound 32, N^1-((3-(6-(isobutyl(methyl)amino)pyridin-3-yl)-1H-pyrazol-4-yl)methyl)-N^1,N^2-dimethylethane-1,2-diamine] was ≤ 100 nM; that for `CN(CCN)Cc1c[nH]nc1-c1ccccn1` [Compound 27] was 3010 to 10000 nM.
With `CCN(CCC(C)C)c1ccc(-c2n[nH]cc2CN(C)CCNC)cn1` [Compound 34, N^1-((3-(6-(ethyl(isopentyl)amino)pyridin-3-yl)-1H-pyrazol-4-yl)methyl)-N^1,N^2-dimethylethane-1,2-diamine], the IC50 was ≤ 100 nM.
The value for `CN(CCN)Cc1c[nH]nc1-c1cncc(Cl)c1` [Compound 19] was ≤ 100 nM; that for `Cc1ccncc1-c1n[nH]cc1CN(C)CCN` [Compound 17] was 101 to 1000 nM.
As for `COc1cc(-c2n[nH]cc2CN(C)CCN)c(Cl)cn1` [Compound 12], the IC50 was in the range of 1010 to 3000 nM.
Consider `CC(C)CN(C)c1ccc(-c2n[nH]cc2CN(C)CCN)cn1` [Compound 21], for which the IC50 was ≤ 100 nM.
Compound `COc1ccc(-c2n[nH]cc2CN(C)CCN)cn1` [Compound 5] registered an IC50 of 101 to 1000 nM.
The value for `CN(CCN)Cc1c[nH]nc1-c1cnccc1C(F)(F)F` [Compound 29] was 1010 to 3000 nM.
